Assay results published in publication PMC11837497, “A novel FadL family outer membrane transporter is involved in the uptake of polycyclic aromatic hydrocarbons” (Applied and Environmental Microbiology, 2025).

Target: T1, PadL (NpPadL) (Novosphingobium pentaromativorans, UniProt G6EAN6)
T1 construct: gene NSU_1434; padL expressed from pET-28b (T7, IPTG) in E. coli BL21 cells; also pHGE-Ptac complementation of delta-padL US6-1; signal peptide (residues 1-45) removed only in the model
T1 sequence (G6EAN6 46-450): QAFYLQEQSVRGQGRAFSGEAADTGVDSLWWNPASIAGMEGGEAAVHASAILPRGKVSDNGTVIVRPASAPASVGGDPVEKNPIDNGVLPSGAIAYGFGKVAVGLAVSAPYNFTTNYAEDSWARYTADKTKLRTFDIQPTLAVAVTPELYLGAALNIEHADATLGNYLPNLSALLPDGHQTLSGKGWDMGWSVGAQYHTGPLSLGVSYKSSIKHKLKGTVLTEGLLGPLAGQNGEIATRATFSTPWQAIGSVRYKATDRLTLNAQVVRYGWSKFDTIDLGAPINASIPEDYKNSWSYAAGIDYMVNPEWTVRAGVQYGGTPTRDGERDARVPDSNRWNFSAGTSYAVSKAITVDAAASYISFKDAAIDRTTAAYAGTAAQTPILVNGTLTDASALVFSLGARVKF
Assay: uptake by intact cells, confocal fluorescence of intracellular phenanthrene
Type: cell-based
Conditions: E. coli BL21/pET28b-padL, LB medium, 200 mg/L phenanthrene, IPTG induction, 37 °C

With `c1ccc2c(c1)ccc1ccccc12` [phenanthrene] the “uptake by intact cells, confocal fluorescence of intracellular phenanthrene” value was “E. coli BL21 can be endowed with an ability to assimilate phenanthrene after heterologous expression of PadL”.
